# Measurements published in patent US9355826B2, “Method for imaging mass analysis using physical vapor deposition of platinum nanoparticles” (priority 2012, dated 2016).
# Assay: IMS visualization of permeation and distribution of acephate in ivy after scattering a grain type agricultural chemical on the soil
# Format: in vivo
# Settings: for mass spectrum of collected leaves (peaks originating from acephate): FIG. 32; for distribution of acephate on leaf (peak at m/z=206): FIG. 33; for distribution of acephate in stem (peak at m/z=206): ivy stems collected 4 days later, FIG. 34
# Protocol: A grain type pesticide agricultural chemical for horticulture was scattered on soil in which ivy was planted. 4, 8, 11, and 14 days later, leaves at about 30 mm from the soil were collected, and platinum nanoparticles were vapor deposited using a magnetron sputtering device to a thickness of 10 nm, thereby preparing samples. The grain type agricultural chemical that was used contained acephate as an active component.
# Each sample was measured by IMS. Also, for the stems that were collected 4 days later, the lower stem and the upper stem, which were respectively close to and far from the root, were measured by IMS under the same conditions.
# The measurement conditions of IMS are shown below.
# Irradiation laser: Nd:YAG laser (355 nm)
# Accelerating voltage: 19 kV
# Reflectron voltage: 21 kV
# Laser radius: about 100 μm (ultra mode)
# Measurement interval: 150 μm
compound,measurement,setting,value
COP(=O)(NC(C)=O)SC (centres unmarked) [acephate],mass spectrum of collected leaves (peaks originating from acephate),"ivy leaves at about 30 mm from the soil, collected 4 days after scattering on soil",only the peaks of the wax layer were observed
same,distribution of acephate on leaf (peak at m/z=206),ivy leaves collected 4 days later,not observed
same,distribution of acephate on leaf (peak at m/z=206),ivy leaves collected 8 days later,observed at the base of the leaves
same,mass spectrum of collected leaves (peaks originating from acephate),ivy leaves collected 11 days after scattering on soil,peaks originating from acephate were observed
same,distribution of acephate on leaf (peak at m/z=206),ivy leaves collected 11 days later,observed spreading to the tips of the leaves
same,distribution of acephate on leaf (peak at m/z=206),ivy leaves collected 14 days later,observed spreading to the tips of the leaves
same,distribution of acephate in stem (peak at m/z=206),lower stem close to the soil,strong peak of acephate was observed in the lower side of the lower stem
same,distribution of acephate in stem (peak at m/z=206),moving upward along the stem,gradual weakening of the acephate peak
